# Tests used:
# Type in all cases: in vivo
# Settings in all cases: evaluated after 13 days
# Setaria faberi (SETFA) [1] = assay: Pre-emergence Test, Setaria faberi (SETFA)
# [2] = test system: Echinochloa crus-galli (ECHCG); assay: Pre-emergence Test, Echinochloa crus-galli (ECHCG)
# Zea mays (ZEAMX) [3] = assay: Pre-emergence Test, Zea mays (ZEAMX)
# [4] = test system: Ipomoea hederacea (IPOHE); assay: Pre-emergence Test, Ipomoea hederacea (IPOHE)
# [5] = test system: Amaranthus palmeri (AMAPA); assay: Pre-emergence Test, Amaranthus palmeri (AMAPA)
# [6] = test system: Amaranthus retoflexus (AMARE); assay: Pre-emergence Test, Amaranthus retoflexus (AMARE)
# Setaria faberi (SETFA) [7] = assay: Post-emergence Test, Setaria faberi (SETFA); set-up: key to percentage damage caused to the plant, SETFA (five-point scale): 5=81-100%, 4=61-80%, 3=41-60%, 2=21-40%, 1=0-20% damage
# How it was run: (§1)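 Sown pots in a glasshouse (24/16 °C day/night, 14 h light, 65% humidity) were sprayed with compound in acetone/water (50:50) with 0.5% Tween 20, at 1000 g/ha unless otherwise stated. Damage was assessed 13 days after spraying and scored 1–5 (5=81-100%, 1=0-20%).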
# [8] = test system: Echinochloa crus-galli (ECHCG); assay: Post-emergence Test, Echinochloa crus-galli (ECHCG); set-up: key to percentage damage caused to the plant, ECHCG (five-point scale): 5=81-100%, 4=61-80%, 3=41-60%, 2=21-40%, 1=0-20% damage
# How it was run: as §1
# Zea mays (ZEAMX) [9] = assay: Post-emergence Test, Zea mays (ZEAMX); set-up: key to percentage damage caused to the plant, ZEAMX (five-point scale): 5=81-100%, 4=61-80%, 3=41-60%, 2=21-40%, 1=0-20% damage
# How it was run: as §1
# [10] = test system: Ipomoea hederacea (IPOHE); assay: Post-emergence Test, Ipomoea hederacea (IPOHE); set-up: key to percentage damage caused to the plant, IPOHE (five-point scale): 5=81-100%, 4=61-80%, 3=41-60%, 2=21-40%, 1=0-20% damage
# How it was run: as §1
# [11] = test system: Amaranthus palmeri (AMAPA); assay: Post-emergence Test, Amaranthus palmeri (AMAPA); set-up: key: 5=81-100%, 4=61-80%, 3=41-60%, 2=21-40%, 1=0-20% damage
# How it was run: as §1
# [12] = test system: Amaranthus retoflexus (AMARE); assay: Post-emergence Test, Amaranthus retoflexus (AMARE); set-up: key to percentage damage caused to the plant, AMARE (five-point scale): 5=81-100%, 4=61-80%, 3=41-60%, 2=21-40%, 1=0-20% damage
# How it was run: as §1
Structure (SMILES),"Pre-emergence Test SETFA, percentage damage caused to the plant (five-point scale) (Setaria faberi (SETFA) [1]; 250 g/Ha (*))","Pre-emergence Test SETFA, percentage damage caused to the plant (five-point scale) (Setaria faberi (SETFA) [1]; 1000 g/ha)","Pre-emergence Test ECHCG, percentage damage caused to the plant (five-point scale) ([2]; 250 g/Ha (*))","Pre-emergence Test ECHCG, percentage damage caused to the plant (five-point scale) ([2]; 1000 g/ha)","Pre-emergence Test ZEAMX, percentage damage caused to the plant (five-point scale) (Zea mays (ZEAMX) [3]; 250 g/Ha (*))","Pre-emergence Test ZEAMX, percentage damage caused to the plant (five-point scale) (Zea mays (ZEAMX) [3]; 1000 g/ha)","Pre-emergence Test IPOHE, percentage damage caused to the plant (five-point scale) ([4]; 250 g/Ha (*))","Pre-emergence Test IPOHE, percentage damage caused to the plant (five-point scale) ([4]; 1000 g/ha)","Pre-emergence Test AMAPA, percentage damage caused to the plant (five-point scale) ([5]; 250 g/Ha (*))","Pre-emergence Test AMAPA, percentage damage caused to the plant (five-point scale) ([5]; 1000 g/ha)","Pre-emergence Test AMARE, percentage damage caused to the plant (five-point scale) ([6]; 250 g/Ha (*))","Pre-emergence Test AMARE, percentage damage caused to the plant (five-point scale) ([6]; 1000 g/ha)","percentage damage caused to the plant, SETFA (five-point scale) (Setaria faberi (SETFA) [7]; 250 g/Ha)","percentage damage caused to the plant, SETFA (five-point scale) (Setaria faberi (SETFA) [7]; 1000 g/ha)","percentage damage caused to the plant, ECHCG (five-point scale) ([8]; 250 g/Ha)","percentage damage caused to the plant, ECHCG (five-point scale) ([8]; 1000 g/ha)","percentage damage caused to the plant, ZEAMX (five-point scale) (Zea mays (ZEAMX) [9]; 250 g/Ha)","percentage damage caused to the plant, ZEAMX (five-point scale) (Zea mays (ZEAMX) [9]; 1000 g/ha)","percentage damage caused to the plant, IPOHE (five-point scale) ([10]; 250 g/Ha)","percentage damage caused to the plant, IPOHE (five-point scale) ([10]; 1000 g/ha)",further results
"CCn1c(Cn2nccc2C#N)cc(=O)c(C(=O)O)c1-c1ccc(Cl)c(Cl)c1 [Compound 176, 6-[(5-cyanopyrazol-1-yl)methyl]-2-(3,4-dichlorophenyl)-1-ethyl-4-oxo-pyridine-3-carboxylic acid]",4 (4=61-80%),4 (4=61-80%),2 (2=21-40%),4 (4=61-80%),0,0,0,1 (1=0-20%),1 (1=0-20%),2 (2=21-40%),0,0,2 (2=21-40%),4 (4=61-80%),2 (2=21-40%),4 (4=61-80%),0,1 (1=0-20%),2 (2=21-40%),3 (3=41-60%),"percentage damage caused to the plant, AMAPA (five-point scale) ([11]; 250 g/Ha): 0; percentage damage caused to the plant, AMARE (five-point scale) ([12]; 250 g/Ha): 0; percentage damage caused to the plant, AMARE (five-point scale) ([12]; 1000 g/ha): 3 (3=41-60%)"
"CCn1c(Cn2cncc2Cl)cc(=O)c(C(=O)O)c1-c1ccc(Cl)c(Cl)c1 [Compound 79, 6-[(5-chloroimidazol-1-yl)methyl]-2-(3,4-dichlorophenyl)-1-ethyl-4-oxo-pyridine-3-carboxylic acid]",1 (1=0-20%),–,1 (1=0-20%),–,0,–,0,–,1 (1=0-20%),–,0,–,0,–,1 (1=0-20%),–,1 (1=0-20%),–,1 (1=0-20%),–,"percentage damage caused to the plant, AMAPA (five-point scale) ([11]; 250 g/Ha): 0; percentage damage caused to the plant, AMARE (five-point scale) ([12]; 250 g/Ha): 1 (1=0-20%)"
"CCn1c(Cn2ccc(C(F)(F)F)n2)c(C)c(=O)c(C(=O)O)c1-c1ccc(Cl)c(Cl)c1 [Compound 20, 2-(3,4-dichlorophenyl)-1-ethyl-5-methyl-4-oxo-6-[[3-(trifluoromethyl)pyrazol-1-yl]methyl]pyridine-3-carboxylic acid]",–,2 (2=21-40%),–,4 (4=61-80%),–,1 (1=0-20%),–,0,–,0,–,0,–,4 (4=61-80%),–,3 (3=41-60%),–,1 (1=0-20%),–,0,"percentage damage caused to the plant, AMAPA (five-point scale) ([11]; 1000 g/ha): 0; percentage damage caused to the plant, AMARE (five-point scale) ([12]; 1000 g/ha): 1 (1=0-20%)"
CCn1c(Cn2ccc(C(F)F)n2)cc(=O)c(C(=O)O)c1-c1ccc(Cl)c(Cl)c1 [Compound 186],5 (5=81-100%),5 (5=81-100%),4 (4=61-80%),5 (5=81-100%),0,3 (3=41-60%),2 (2=21-40%),4 (4=61-80%),0,1 (1=0-20%),0,2 (2=21-40%),4 (4=61-80%),4 (4=61-80%),4 (4=61-80%),4 (4=61-80%),1 (1=0-20%),1 (1=0-20%),4 (4=61-80%),4 (4=61-80%),"percentage damage caused to the plant, AMAPA (five-point scale) ([11]; 250 g/Ha): 2 (2=21-40%); percentage damage caused to the plant, AMAPA (five-point scale) ([11]; 1000 g/ha): 2 (2=21-40%); percentage damage caused to the plant, AMARE (five-point scale) ([12]; 250 g/Ha): 1 (1=0-20%); percentage damage caused to the plant, AMARE (five-point scale) ([12]; 1000 g/ha): 3 (3=41-60%)"
"CCn1c(Cn2cc(Cl)c(C3CC3)n2)cc(=O)c(C(=O)O)c1-c1ccc(Cl)c(Cl)c1 [Compound 94, 6-[(4-chloro-3-cyclopropyl-pyrazol-1-yl)methyl]-2-(3,4-dichlorophenyl)-1-ethyl-4-oxo-pyridine-3-carboxylic acid]",1 (1=0-20%),1 (1=0-20%),2 (2=21-40%),2 (2=21-40%),0,0,0,1 (1=0-20%),1 (1=0-20%),2 (2=21-40%),0,1 (1=0-20%),0,4 (4=61-80%),4 (4=61-80%),1 (1=0-20%),0,0,0,3 (3=41-60%),"percentage damage caused to the plant, AMAPA (five-point scale) ([11]; 250 g/Ha): 2 (2=21-40%); percentage damage caused to the plant, AMAPA (five-point scale) ([11]; 1000 g/ha): 3 (3=41-60%); percentage damage caused to the plant, AMARE (five-point scale) ([12]; 250 g/Ha): 3 (3=41-60%); percentage damage caused to the plant, AMARE (five-point scale) ([12]; 1000 g/ha): 3 (3=41-60%)"

# Source: patent US20250098679A1, “HERBICIDAL PYRIDONE DERIVATIVES” (SYNGENTA CROP PROTECTION AG, priority 2021, published 2025)
